Values joined by “and” are separate entries in the source; they are usually repeats but may differ in a detail not shown here. Equal values may be shown once. Read-outs that look alike come from different tables or passages of the source.
Legend:
human P-gp-His10 [1] = molecular target: T1, human P-gp-His10 (Homo sapiens, UniProt P08183)
human P-gp-His10 [2] = molecular target: T1, human P-gp-His10; test: Stimulation of human P-gp-His10 ATPase activity; conditions: read-out: KM (apparent Michaelis-Menten constant, concentration for half maximal stimulation of ATPase activity)
[3] = test system: MDCKII-MDR1 transfected cells, which over-express P-gp; test: Transport and cell association across monolayers of MDCKII-MDR1 cells; conditions: 5 μM dye, 4.3 mg mL^−1 BSA (23-Se: no added BSA); for PAB (absorptive transport), + inh / PBA (secretory transport), + inh: + […] inhibitor 42
log P = format: physicochemical; conditions: n-octanol/water
P-gp = test: in vitro; conditions: dog, MDCK-MDR1
[4] = test system: MDCKII-MDR1 transfected cells, which over-express P-gp; conditions: dog, MDCK-MDR1

T1 sequence (P08183 whole entry): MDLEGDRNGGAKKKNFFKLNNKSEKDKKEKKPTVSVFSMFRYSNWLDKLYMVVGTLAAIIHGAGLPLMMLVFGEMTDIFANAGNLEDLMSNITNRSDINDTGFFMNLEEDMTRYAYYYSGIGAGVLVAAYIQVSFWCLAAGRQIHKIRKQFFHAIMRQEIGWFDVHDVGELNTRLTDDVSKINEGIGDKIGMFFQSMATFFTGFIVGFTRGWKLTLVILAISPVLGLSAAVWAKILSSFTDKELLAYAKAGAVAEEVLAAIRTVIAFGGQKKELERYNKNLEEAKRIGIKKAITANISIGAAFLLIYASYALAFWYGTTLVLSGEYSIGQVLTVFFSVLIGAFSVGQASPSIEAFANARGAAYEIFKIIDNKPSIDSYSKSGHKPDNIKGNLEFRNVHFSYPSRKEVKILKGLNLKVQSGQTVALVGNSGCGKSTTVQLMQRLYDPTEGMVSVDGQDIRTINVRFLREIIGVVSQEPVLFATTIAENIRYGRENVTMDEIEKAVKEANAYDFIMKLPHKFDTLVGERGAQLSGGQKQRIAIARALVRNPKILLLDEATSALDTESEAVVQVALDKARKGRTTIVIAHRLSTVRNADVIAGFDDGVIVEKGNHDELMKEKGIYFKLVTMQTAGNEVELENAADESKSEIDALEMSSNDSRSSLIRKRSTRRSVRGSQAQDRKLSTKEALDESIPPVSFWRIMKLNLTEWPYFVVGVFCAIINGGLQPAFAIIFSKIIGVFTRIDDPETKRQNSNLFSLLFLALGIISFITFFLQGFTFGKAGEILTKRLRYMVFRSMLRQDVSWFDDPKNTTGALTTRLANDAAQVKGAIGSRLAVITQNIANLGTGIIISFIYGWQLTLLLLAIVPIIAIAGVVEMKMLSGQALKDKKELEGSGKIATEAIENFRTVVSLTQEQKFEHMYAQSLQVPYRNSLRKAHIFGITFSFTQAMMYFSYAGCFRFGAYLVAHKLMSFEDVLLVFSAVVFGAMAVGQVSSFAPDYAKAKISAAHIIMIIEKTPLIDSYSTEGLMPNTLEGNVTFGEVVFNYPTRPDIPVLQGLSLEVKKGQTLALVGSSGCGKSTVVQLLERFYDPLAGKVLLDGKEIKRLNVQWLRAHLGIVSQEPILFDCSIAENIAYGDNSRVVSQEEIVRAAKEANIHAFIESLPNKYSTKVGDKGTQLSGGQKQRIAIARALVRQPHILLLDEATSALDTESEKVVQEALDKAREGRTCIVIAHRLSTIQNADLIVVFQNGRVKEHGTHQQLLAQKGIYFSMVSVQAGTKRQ

Km (human P-gp-His10 [2]) | SMILES | Km (human P-gp-His10 [1]) | other results
– | CN(C)c1ccc2c(-c3ccccc3)c3ccc(=[N+](C)C)cc-3[se]c2c1 [Compound 1-Se] | 9.1 ± 1.1 µM | –
– | CN(C)c1ccc2c(-c3ccccc3)c3ccc(=[N+](C)C)cc-3[te]c2c1 [Compound 1-Te] | 8.3 ± 0.8 µM | –
8.3 ± 1.2 µM | CN(C)c1ccc(-c2c3ccc(=[N+](C)C)cc-3sc3cc(N(C)C)ccc23)cc1 [Compound 5-S] | – | –
– | CN(C)c1ccc(-c2c3ccc(=[N+](C)C)cc-3[se]c3cc(N(C)C)ccc23)cc1 [Compound 5-Se] | 10.1 ± 0.7 µM | –
– | CN(C)c1ccc(-c2c3ccc(=[N+](C)C)cc-3[te]c3cc(N(C)C)ccc23)cc1 [Compound 5-Te] | 9 ± 0.8 µM | –
3.4 ± 0.6 µM | CN(C)c1cccc(-c2c3ccc(=[N+](C)C)cc-3sc3cc(N(C)C)ccc23)c1 [Compound 7-S] | – | –
– | CN(C)c1cccc(-c2c3ccc(=[N+](C)C)cc-3[se]c3cc(N(C)C)ccc23)c1 [Compound 7-Se] | 3.5 ± 0.2 µM | –
– | CN(C)c1cccc(-c2c3ccc(=[N+](C)C)cc-3[te]c3cc(N(C)C)ccc23)c1 [Compound 7-Te] | 2 ± 0.1 µM | –
3.9 ± 0.1 µM | COc1cccc(-c2c3ccc(=[N+](C)C)cc-3sc3cc(N(C)C)ccc23)c1 [Compound 10-S] | – | –
– | COc1cccc(-c2c3ccc(=[N+](C)C)cc-3[se]c3cc(N(C)C)ccc23)c1 [Compound 10-Se] | 3.3 ± 0.6 µM | –
– | COc1cccc(-c2c3ccc(=[N+](C)C)cc-3[te]c3cc(N(C)C)ccc23)c1 [Compound 10-Te] | 3.2 ± 1 µM | –
0.36 ± 0.08 µM | CN(C)c1ccc2c(-c3ccc(C(=S)N4CCCCC4)s3)c3ccc(N(C)C)cc3[s+]c2c1 [Compound 30-S, 3,6-Bis(dimethylamino)-9-(N-piperidyl-2-thienyl-5-thiocarboxamido)thioxanthylium Hexafluorophosphate] | – | –
– | CN(C)c1ccc2c(-c3ccc(CCl)cc3)c3ccc(=[N+](C)C)cc-3oc2c1.[Br-] [TMR, tetramethylrosamine] | – | Papp (P-gp): 1.7 ± 0.5 ×10⁻⁶ cm/s; P BA/AB (ratio of secretory to absorptive transport), + inh [4]: 338 1.6; PAB (absorptive transport) [4]: 3.0 ± 0.1 14 ± 1 nm s^−1; PAB (absorptive transport), + inh [4]: 3.0 ± 0.1 14 ± 1 nm s^−1; PBA (secretory transport), + inh [4]: 1010 ± 10 21 ± 2 nm s^−1

SMILES | Km (human P-gp-His10 [2]) | Km (human P-gp-His10 [1]) | other results
CN(C)c1ccc2c(-c3ccc(C(=S)N4CCCCC4)s3)c3ccc(N(C)C)cc3[te+]c2c1.F[P-](F)(F)(F)(F)F [Compound 30-Te, 3,6-Bisa(dimethylamino)-9-(N-piperidyl-2-thienyl-5-thiocarboxamido)telluroxanthylium Hexafluorophosphate] | 0.41 ± 0.03 µM | – | PAB (absorptive transport), + inh [3]: 1.2 ± 0.1 nm/s; PBA (secretory transport), + inh [3]: 0.2 ± 0.01 ×10⁻⁶ cm/s; PAB (absorptive transport) ([3]; no inhibitor): 0.09 ± 0.01 ×10⁻⁶ cm/s; PBA (secretory transport) ([3]; no inhibitor): 2.2 ± 0.8 ×10⁻⁶ cm/s; log P (log P): 0.9
CN(C)c1ccc2c(-c3ccc(C(=S)N4CCCCC4)s3)c3cc4c5c(c3[s+]c2c1)CCCN5CCC4.F[P-](F)(F)(F)(F)F [Compound 31-S, 12-(Dimethylamino)-2,3,6,7-tetrahydro-9-(N-Piperidyl-2-thienyl-5-thiocarboxamido)-1H,5H-thioxantheno[2,3,4-ij]quinolizin-14-ium Hexafluorophosphate] | 0.087 ± 0.012 µM | – | PAB (absorptive transport), + inh [3]: 0.8 ± 0.1 0.8 ± 0.1 nm s^−1; PBA (secretory transport), + inh [3]: 0.16 ± 0.01 ×10⁻⁶ cm/s; PBA (secretory transport) ([3]; no inhibitor): 5 ×10⁻⁶ cm/s and 5 ± 0.1 ×10⁻⁶ cm/s
